Test results taken from US20160237450A1, “METHOD FOR ENHANCING DROUGHT TOLERANCE IN PLANTS” (Plant Response Biotech S.L., priority 2015, published 2016).

Legend:
Assay type in all cases: in vivo
[1] = tested on: Arabidopsis thaliana plants (Col-0); experiment: Drought fitness of wild type Arabidopsis sprayed with TMAO di-hydrate; settings: Col-0 sprayed 1 g/L after first wilting cycle, scale 0 dead to 4 healthy
Experimental: Transgenic FMO3X and FMO8X genotypes and wild type Col-0 seeds of Arabidopsis thaliana were sown, grown and treated as described above. For the control group of both wild-type and transgenic plants, six week old plants were irrigated with 40 ml of water twice in the week, while “drought” treated plants of both wild-type and transgenic plants were not irrigated until all the plants were wilted.
After the first cycle of wilting wild type plants were sprayed with 1 g/L TMAO di-hydrate to determine if the wilted wild type plants could recover and perform as well as the transgenic plants in the following cycles of wilting. Fitness values were assigned using the following criteria: 0: Dead plant; 1: Critically damaged plant symptoms; 2: Moderate damaged plant symptoms; 3: Slightly damaged plant symptoms; and 4: Healthy plant.

[2] = tested on: cucumber plants ('Marketer'); experiment: Cucumber plant survival under extreme drought
Experimental: For each drought or limited water experiment 480 seeds (of either pepper, barley, tomato, cucumber or corn) were sown, producing 384 plants in 512 cm^3 pots (4 plants per pot). Plants were grown under chamber conditions at 21° C. for 3 weeks. Then, the plants were moved to a greenhouse, where average temperature was 25° C. to 28° C. Spray and irrigation treatments as described herein were done when the plants had two extended leaves and the next pair of leaves were coming up.
Treatments: Twelve pots (containing 48 plants) were irrigated with 40 ml of either: water, 0.1 g/L TMAO di-hydrate solution, 1.0 g/L TMAO di-hydrate solution, or 5.5 g/L TMAO di-hydrate solution. Another set of 12 pots containing 48 plants were sprayed with 40 ml of either water (3.3 ml in average per pot), a solution containing 0.1 g/L TMAO di-hydrate solution, 1.0 g/L TMAO di-hydrate, or 5 g/L, or 10 g/L TMAO di-hydrate. Further sets of 12 pots containing 48 plants were both sprayed with each initial solution TMAO di-hydrate solution and further irrigated with the same TMAO di-hydrate solutions used in the control water sprayed plants. All pots were also watered with 40 ml of water. The sprayed plants were watered with the same volume of water as the “irrigated plants). The pots were located on plastic glass to maintain constant moisture and to avoid liquid spillage during watering. Trays containing the pots were located on greenhouse tables. The distribution of the trays on the table and the position on the pots in the tray was changed every week to avoid position effects.
After the treatments described above, the plants were not watered until the pots completely lost their moisture, taking about 4 to 8 days depending on the season, at which point the plants were extremely wilted for the extreme drought experiments. The plants were then watered once with solutions containing the different amounts of TMAO di-hydrate (0.1 g/L, 1.0 g/L, 5 g/L, or 10 g/L) or just water, after which the plants were left to lose their moisture completely again for three consecutive cycles of watering after wilting. For the “extreme drought” experiments plants were allowed to wilt severely before watering and then the plant survival rate was recorded and analyzed.
TMAO di-hydrate applied exogenously which increases the endogenous content of TMAO as if the plants were overexpressing an FMO protein at least 4 times increases plant survival in cucumber under extreme drought conditions. ‘Marketer’ cucumber seeds were sown, grown and treated as described above.

kohlrabi plants = experiment: Yield production without drought stress, kohlrabi; settings: 1 g/l spray every 4 weeks for 3 months, no drought stress
Experimental: (§1) In order to determine the plant yield productivity under normal conditions, ‘Sabrina’, ‘Candonga’ and ‘Fortuna’ strawberry varieties, leek, lettuce, “Iceberg” variety, broccoli “Parthenon” variety, celery or kohlrabi plants, were grown under standard production conditions and 120 plants of each variety per treatment (where the treatment was a control comprising standard watering or 1 g/L of TMAO di-hydrate spray every four weeks) were analyzed. Plants were located in four (4) different positions for each group of 30 plants from the same treatment. Fruits, leaves or roots were harvested from individual plants and total weight was determined for each plant.
(§2) Root or leaves yield was determined in the plants treated with 1 g/l of TMAO di-hydrate or water as described above in order to evaluate the trade-off costs of the treatment with no drought stress.

celery plants = experiment: Yield production without drought stress, celery; settings: 1 g/l spray every 4 weeks for 3 months, no drought stress
Experimental: as §1, §2

corn plants ('FAO700') = experiment: Corn grains per cob under limited water; settings: 30% water
Experimental: In order to determine the drought or drought stress tolerance after seed treatments with TMAO di-hydrate and germination in the presence of TMAO di-hydrate, barley “Hispanic” seeds, corn “FAO700” seeds, and “Sambro” sunflower seeds were surface sterilized for 3 minutes in ethanol 70%, then rinsed twice and finally included in a pre-treatment solution of 1 g/L TMAO di-hydrate solution (or just water) under shaking for 3 hours at a dose of 1 litre per Kg of seeds. Then, the seeds were sown in randomized plots of 10 sqm in a surface of 2.000 sqm. Chlorophyll content was measured 1 month before harvest. In corn irrigation was applied in half of the plots while the other half only received an initial establishment watering. The barley plots received 200 l of rain per m^2 through the growing season. Some of the plots received a second spray treatment with 1 g/liter of TMAO. […] At least 3 independent plants were treated per experiment.
(§3) TMAO di-hydrate applied exogenously which increases the endogenous content of TMAO as if the plants were overexpressing an FMO protein at least 4 times increases plant production in corn under limited water irrigation. ‘FAO700’ corn seeds were sown, grown and treated as described above. Spray treatments with 1 g/L TMAO di-hydrate increased plant grain production.

[3] = tested on: broccoli plants (Parthenon); experiment: Yield production without drought stress, broccoli; settings: 1 g/l spray every 4 weeks for 3 months, no drought stress
Experimental: as §1, §2

[4] = tested on: tomato plants ('Rio Grande'); experiment: Tomato fruit production under limited water irrigation; settings: 30% water irrigation; 1 g/L spray every 4 weeks
Source text: as §3, with “tomato” for “corn”, “‘Rio Grande’ tomato” for “‘FAO700’ corn”, “described.” for “described above.”, “both fruit size and fruit” for “plant grain”

lettuce plants (Iceberg) = experiment: Yield production without drought stress, lettuce; settings: 1 g/l spray every 4 weeks for 3 months, no drought stress
Experimental: as §1, §2

`C[N+](C)(C)[O-].O.O` [TMAO di-hydrate, trimethylamine N-oxide di-hydrate] was tested, and the “Mean Fitness Value ± S.E.” value [1] was 1.83 ± 0.21, the “SURVIVAL RATE (%)” value ([2]; irrigation 0.1 g/L, initial spray 0.1 g/L) was 82.9 ± 7.4% and the “SURVIVAL RATE (%)” value ([2]; irrigation 0.1 g/L, initial spray 1 g/L) was 91.6 ± 7.4%. For the same compound, the “SURVIVAL RATE (%)” value ([2]; irrigation 0.1 g/L, initial spray 5 g/L) was 95.8 ± 7.4%, the “SURVIVAL RATE (%)” value ([2]; irrigation 0.1 g/L, initial spray water) was 45.8 ± 7.4% and the “SURVIVAL RATE (%)” value ([2]; irrigation 1 g/L, initial spray 0.1 g/L) was 91.6 ± 5.9%. For the same compound, the “SURVIVAL RATE (%)” value ([2]; irrigation 1 g/L, initial spray 1 g/L) was 91.6 ± 5.9%, the “SURVIVAL RATE (%)” value ([2]; irrigation 1 g/L, initial spray 5 g/L) was 91.6 ± 5.9% and the “SURVIVAL RATE (%)” value ([2]; irrigation 1 g/L, initial spray water) was 87.5 ± 5.9%. The “SURVIVAL RATE (%)” value ([2]; irrigation 5 g/L, initial spray 0.1 g/L) was 75.0 ± 7.2%, the “SURVIVAL RATE (%)” value ([2]; irrigation 5 g/L, initial spray 1 g/L) was 95.8 ± 7.2% and the “SURVIVAL RATE (%)” value ([2]; irrigation 5 g/L, initial spray 5 g/L) was 95.8 ± 7.2%. The “SURVIVAL RATE (%)” value ([2]; irrigation 5 g/L, initial spray water) was 66.6 ± 7.2%, the “SURVIVAL RATE (%)” value ([2]; irrigation all regimes, initial spray 0.1 g/L) was 80.1 ± 3.4% and the “SURVIVAL RATE (%)” value ([2]; irrigation all regimes, initial spray 1 g/L) was 92.7 ± 3.4%. The “SURVIVAL RATE (%)” value ([2]; irrigation all regimes, initial spray 5 g/L) was 94.7 ± 3.4%, the “SURVIVAL RATE (%)” value ([2]; irrigation water, initial spray 0.1 g/L) was 83.3 ± 7.2% and the “SURVIVAL RATE (%)” value ([2]; irrigation water, initial spray 1 g/L) was 91.6 ± 7.2%. The “SURVIVAL RATE (%)” value ([2]; irrigation water, initial spray 5 g/L) was 95.8 ± 7.2%, the “Yield production, % Control” value (kohlrabi plants) was 103% and the “Yield production, % Control” value (celery plants) was 100%. For the same compound, the “AVERAGE NUMBER OF GRAINS PER COB” value (corn plants ('FAO700'); 1 g/L seed treatment) was 542.89 ± 41.22, the “AVERAGE NUMBER OF GRAINS PER COB” value (corn plants ('FAO700'); 1 g/L spray) was 511.34 ± 19.70 and the “increase in total number of grains per corn cob compared to 100% water irrigation” value (corn plants ('FAO700'); 1 g/L, row 4) was 2%. For the same compound, the “Yield production, % Control” value [3] was 120%, the “AVERAGE WEIGHT (grams/fruit)” value [4] was 76.73 ± 17.67 grams/fruit and the “increase of fruit production over untreated plants with 30% irrigation” value [4] was 45%. The “Yield production, % Control” value (lettuce plants (Iceberg)) was 112%.
